“And” between values parts separate entries of the source, which are not always exact repeats. Equal values may be shown once.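 Five concentrations, 48 hours, 96-well plates. GI50: concentration for 50% inhibition of growth. TGI: total growth inhibition.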
What was measured:
Experiment in all cases: inhibition of tumour cell growth, NCI panel, 48 h
OVCAR-8 ovarian = system: OVCAR-8 ovarian
OVCAR-5 ovarian = system: OVCAR-5 ovarian
DMS 114 small cell lung = system: DMS 114 small cell lung
HCT-116 colon = system: HCT-116 colon
COLO 205 colon = system: COLO 205 colon
NCI/ADR-RES ovarian = system: NCI/ADR-RES ovarian
UO-31 renal = system: UO-31 renal
KM20L2 colon = system: KM20L2 colon
SK-MEL-2 melanoma = system: SK-MEL-2 melanoma
UACC-257 melanoma = system: UACC-257 melanoma
LXFL 529 NSCLC = system: LXFL 529 NSCLC
SNB-78 CNS = system: SNB-78 CNS

SMILES | TGI (OVCAR-8 ovarian) | TGI (OVCAR-5 ovarian) | TGI (DMS 114 small cell lung) | TGI (HCT-116 colon) | TGI (COLO 205 colon) | TGI (NCI/ADR-RES ovarian) | TGI (UO-31 renal) | TGI (KM20L2 colon) | TGI (SK-MEL-2 melanoma) | TGI (UACC-257 melanoma) | TGI (LXFL 529 NSCLC) | TGI (SNB-78 CNS) | GI50 (OVCAR-8 ovarian) | GI50 (OVCAR-5 ovarian) | GI50 (HCT-116 colon) | GI50 (COLO 205 colon) | GI50 (NCI/ADR-RES ovarian) | GI50 (UO-31 renal) | GI50 (SK-MEL-2 melanoma) | GI50 (UACC-257 melanoma)
C/C(=N\Nc1ccccc1)C(CN(C)C)C(c1ccccc1)c1c(O)c2ccccc2oc1=O (stereo not drawn) | > 100 µM | > 100 µM | > 100 µM | > 100 µM | > 100 µM | > 100 µM | > 100 µM | > 100 µM | > 100 µM | > 100 µM | > 100 µM | – | – | – | – | – | – | – | – | –
CC1(C)COC(c2c(-c3ccccc3)noc2CS(=O)c2ccccc2)=N1 (stereo not drawn) | > 100 µM | > 100 µM | 99.1 µM | > 100 µM | > 100 µM | – | > 100 µM | > 100 µM | 70.2 µM | > 100 µM | > 100 µM | > 100 µM | – | – | – | – | – | – | – | –
CC(=O)Nc1ccc(C(=O)N2N=C(C)/C(=C/c3ccc(O)cc3)C2=O)cc1 | > 100 µM | > 100 µM | > 100 µM | > 100 µM | > 100 µM | – | > 100 µM | – | > 100 µM | > 100 µM | – | > 100 µM | – | – | – | – | – | – | – | –
OC12CCCCCC1(N1CCOCC1)c1ccccc12 (stereo not drawn) | > 100 µM | > 100 µM | > 100 µM | > 100 µM | > 100 µM | – | > 100 µM | > 100 µM | > 100 µM | > 100 µM | > 100 µM | > 100 µM | – | – | – | – | – | – | – | –
COC(=O)CC(NC(=O)OCc1ccccc1)C(C(=O)OCc1ccccc1)C1(C)OCCO1 (stereo not drawn) | > 100 µM | – | 82.6 µM | > 100 µM | 36.5 µM | – | 61.1 µM | > 100 µM | 43.8 µM | > 100 µM | 73 µM | – | – | – | – | – | – | – | – | –
CCOc1ccc(-c2oc(/C=N/NS(=O)(=O)c3ccc(C)cc3)c([N+](=O)[O-])c2-c2ccc(OCC)cc2)cc1 | 50 µM | 24.1 µM | 12 µM | 3.92 µM | 37.2 µM | – | 28.7 µM | 31.9 µM | 44.8 µM | 45 µM | 26.6 µM | 34.6 µM | – | – | – | – | – | – | – | –
Cc1cc(=O)[nH]c(NNC(C#N)c2ccc([N+](=O)[O-])cc2)n1 (stereo not drawn) | > 100 µM | > 100 µM | > 100 µM | > 100 µM | > 100 µM | – | > 100 µM | > 100 µM | > 100 µM | > 100 µM | > 100 µM | > 100 µM | – | – | – | – | – | – | – | –
CCOC1=C2NC(Cc3ccc(F)cc3)=NC2C(=O)c2ccccc21 (stereo not drawn) | 61.9 µM | > 100 µM | 61.9 µM | – | 87.5 µM | – | 25.1 µM | > 100 µM | 44.2 µM | 50.8 µM | 77.3 µM | > 100 µM | – | – | – | – | – | – | – | –
Nc1c(N=Nc2ccc(-c3ccc(N=Nc4c(O)ccc5cc(S(=O)(=O)O)cc(S(=O)(=O)O)c45)cc3)cc2)c(S(=O)(=O)O)cc2cc(S(=O)(=O)O)c(N=Nc3ccccc3)c(O)c12 | > 100 µM | > 100 µM | > 100 µM | > 100 µM | > 100 µM | > 100 µM | – | – | > 100 µM | > 100 µM | – | > 100 µM | – | – | – | – | – | – | – | –
Cc1cc2occ(-c3ccc(Cl)cc3)c2c(=O)o1 | > 100 µM | > 100 µM | > 100 µM | > 100 µM | > 100 µM | – | > 100 µM | > 100 µM | > 100 µM | > 100 µM | > 100 µM | > 100 µM | – | – | – | – | – | – | – | –
CC(=O)NC1=C(NCC(C)C)C(=O)c2ccccc2C1=O | 47.2 µM | > 100 µM | 31.7 µM | 35.2 µM | > 100 µM | – | 34.4 µM | 43.9 µM | 67.8 µM | 36.4 µM | 34.4 µM | 89.1 µM | – | – | – | – | – | – | – | –
O=S1(=O)CCN(c2ccccc2CC(c2c[nH]c3ccccc23)c2c[nH]c3ccccc23)CC1 | 39.7 µM | 54.9 µM | > 100 µM | 16.5 µM | 8.23 µM | 38.7 µM | 72 µM | 27.8 µM | 21.1 µM | 18 µM | 25.7 µM | 74.3 µM | – | – | – | – | – | – | – | –
COc1cc(-n2cc(-c3cc(O)c(C/C=C(\C)CCC=C(C)C)c(O)c3)nn2)cc2c1O[C@]1(C)CC[C@@H](O)C(C)(C)[C@H]1C2 | > 66.4 µM | 21.5 µM | – | 23.5 µM | 22.2 µM | 68.6 µM | 1.96 µM | – | 11.5 µM | 48.4 µM | – | – | 3.17 µM | 2.35 µM | 1.15 µM | 3.76 µM | 3.51 µM | 0.365 µM | 0.672 µM | 5.09 µM
Cc1cc2n([O-])cccc-2[n+](=O)c1 | > 100 µM | > 100 µM | > 100 µM | > 100 µM | > 100 µM | – | > 100 µM | > 100 µM | > 100 µM | > 100 µM | > 100 µM | > 100 µM | – | – | – | – | – | – | – | –
CC(C)(C)CC(C)(C)c1ccc(OCCOCC[N+](C)(C)Cc2ccccc2)cc1 | 12.8 µM | 3.25 µM and 19.2 µM | 4.02 µM | 2.69 µM and 3.55 µM | 2.91 µM | 38.8 µM | 45.9 µM and 43 µM | 18.8 µM | 9.71 µM | 3.03 µM | – | 4.26 µM | – | 1.7 µM | 1.38 µM | – | 16.2 µM | 12.4 µM | – | –
C/C(=C\Cc1cc(O)ccc1O)CCc1c(C)cc(O)c(C=O)c1C | 33.9 µM | – | 31.2 µM | 41 µM | 33.4 µM | – | 78.1 µM | > 100 µM | 58.6 µM | – | 30.2 µM | – | – | – | – | – | – | – | – | –
CCCCCCCCCCCCCCCCOCC(Cl)COP(=O)(O)OP(=O)(O)OCC1OC(n2cnc3c(N)ncnc32)C(O)C1O (stereo not drawn) | > 100 µM | > 100 µM | – | > 100 µM | > 100 µM | > 100 µM | > 100 µM | – | > 100 µM | > 100 µM | – | – | – | – | – | – | – | – | – | –
CCCCCCOP(=O)(OCCCCCC)OC(C(=O)OC)C(F)(F)F (stereo not drawn) | > 100 µM | > 100 µM | – | > 100 µM | > 100 µM | > 100 µM | > 100 µM | – | > 100 µM | > 100 µM | – | – | – | – | – | – | – | – | – | –
Cc1ccc(/C=C2\CN(C)CC3C2=NC(=S)NC3c2ccc(C)cc2)cc1 (stereo not drawn) | > 100 µM | > 100 µM | – | > 100 µM | > 71.7 µM | > 100 µM | > 100 µM | – | > 100 µM | > 100 µM | – | – | – | – | – | – | – | – | – | –
O=C(OCc1ccccc1C1CSCSC1)c1cc(C(=O)OCc2ccccc2C2CSCSC2)c(C(=O)OCc2ccccc2C2CSCSC2)cc1C(=O)OCc1ccccc1C1CSCSC1 | > 100 µM | > 100 µM | > 100 µM | > 100 µM | > 100 µM | – | > 100 µM | > 100 µM | > 100 µM | > 100 µM | > 100 µM | > 100 µM | – | – | – | – | – | – | – | –
COC(=O)/C=C/c1ccc2c(c1)CC1(Cc3ccccc3C1)C2 | > 100 µM | > 100 µM | – | 1.34 µM | > 100 µM | > 100 µM | > 100 µM | – | > 100 µM | > 100 µM | – | – | – | – | – | – | – | – | – | –
COc1ccc(-c2c3ccccc3c(-c3ccc(OCCCCCBr)cc3)c3ccccc23)cc1 | > 100 µM | > 100 µM | > 100 µM | > 100 µM | > 100 µM | – | > 100 µM | > 100 µM | > 100 µM | – | > 100 µM | – | – | – | – | – | – | – | – | –
CC1(C)[C@@H]2CC[C@@]1(C)[C@H](O)[C@@H]2SCc1ccccc1 | 37.2 µM | 33.1 µM | – | 44.4 µM | 34.1 µM | 33 µM | 35.4 µM | – | 33.7 µM | 32.5 µM | – | – | – | – | – | – | – | – | – | –
CO[P@]1(=O)O[C@@H](c2ccccc2)[C@H](O)[C@@]1(O)c1ccccc1 | > 100 µM | > 100 µM | – | > 100 µM | > 100 µM | > 100 µM | > 100 µM | – | > 100 µM | > 100 µM | – | – | – | – | – | – | – | – | – | –
O=P(O)(O)CN1CCNCCN(CP(=O)(O)O)CCNCC1 | > 83.6 µM | > 100 µM | – | > 100 µM | > 100 µM | > 100 µM | > 100 µM | – | > 100 µM | > 100 µM | – | – | – | – | – | – | – | – | – | –
CC(=O)CC1(C)OC(N)=C(C#N)C1(C#N)C#N (stereo not drawn) | > 100 µM | > 100 µM | – | > 100 µM | > 100 µM | > 100 µM | > 100 µM | – | > 100 µM | > 100 µM | – | – | – | – | – | – | – | – | – | –
CC(=O)O[C@H]1C(=O)N(c2cc3c4ccccc4ccc3c3ccccc23)[C@@H]1c1ccccc1 | 32.1 µM | > 100 µM | – | 14.4 µM | 18.1 µM | 29.5 µM | 28 µM | – | 9.4 µM | > 100 µM | – | – | – | – | – | – | – | – | – | –
